In ChEMBL document CHEMBL1275440, “In vitro activity of telavancin against resistant gram-positive bacteria” (2008):
In brackets after ≈: the same amount, converted by molar mass. Activity calls are given as the source filed them. The rule behind the calls is not given here.

Tests used:
Format in all cases: functional
Streptococcus agalactiae [1] = experiment: Antibacterial activity against Streptococcus agalactiae MED 2038 assessed as bacterial count at 0.5 ug/ml after 2 hrs by time-kill assay
Staphylococcus aureus [2] = experiment: Antibacterial activity against methicillin resistant Staphylococcus aureus MED 1805 bloodstream isolate assessed as bacterial count at 1 ug/ml after 24 hrs by time-kill assay
Staphylococcus aureus [3] = experiment: Antibacterial activity against methicillin resistant Staphylococcus aureus MED 2028 osteomyelitis isolate assessed as bacterial count at 8 ug/ml after 2 hrs by time-kill assay
[4] = tested on: Staphylococcus saprophyticus; experiment: Antibacterial activity against methicillin resistant coagulase-negative Staphylococcus saprophyticus clinical isolate by broth microdilution method
Streptococcus pyogenes [5] = experiment: Antibacterial activity against Streptococcus pyogenes MED 2040 assessed as bacterial count at […] after 4 hrs by time-kill assay
Staphylococcus aureus [6] = experiment: Antibacterial activity against methicillin resistant Staphylococcus aureus MED 2028 osteomyelitis isolate assessed as bacterial count at 2 ug/ml after 4 hrs by time-kill assay
Staphylococcus aureus [7] = experiment: Antibacterial activity against methicillin resistant Staphylococcus aureus MED 2028 osteomyelitis isolate assessed as bacterial count at 8 ug/ml after 24 hrs by time-kill assay
Streptococcus pneumoniae [8] = experiment: Antibacterial activity against multidrug resistant Streptococcus pneumoniae MED 1090 assessed as bacterial count at 8 ug/ml after 8 hrs by time-kill assay
[9] = tested on: Staphylococcus epidermidis; experiment: Antibacterial activity against methicillin resistant Staphylococcus epidermidis clinical isolate by broth microdilution method
Streptococcus pneumoniae [10] = experiment: Antibacterial activity against multidrug resistant Streptococcus pneumoniae MED 1090 by broth microdilution method
[11] = tested on: Staphylococcus epidermidis; experiment: Antibacterial activity against methicillin resistant Staphylococcus epidermidis ATCC 35984 assessed as bacterial count at 4 ug/ml after 4 hrs by time-kill assay
Streptococcus pneumoniae [12] = experiment: Antibacterial activity against multidrug resistant Streptococcus pneumoniae MED 1090 assessed as bacterial count at 0.06 ug/ml after 4 hrs by time-kill assay
Staphylococcus aureus [13] = experiment: Antibacterial activity against methicillin resistant Staphylococcus aureus MED 1805 bloodstream isolate assessed as bacterial count at 16 ug/ml after 8 hrs by time-kill assay
Staphylococcus aureus [14] = experiment: Antibacterial activity against methicillin resistant Staphylococcus aureus MED 2028 osteomyelitis isolate assessed as bacterial count at 2 ug/ml after 8 hrs by time-kill assay
Streptococcus pneumoniae [15] = experiment: Antibacterial activity against multidrug resistant Streptococcus pneumoniae MED 1090 assessed as bacterial count at 0.03 ug/ml after 8 hrs by time-kill assay
Streptococcus pyogenes [16] = experiment: Antibacterial activity against Streptococcus pyogenes MED 2040 assessed as bacterial count at 8 ug/ml after 4 hrs by time-kill assay
[17] = tested on: Staphylococcus epidermidis; experiment: Antibacterial activity against methicillin resistant Staphylococcus epidermidis ATCC 35984 by broth microdilution method
[18] = tested on: Staphylococcus epidermidis; experiment: Antibacterial activity against methicillin resistant Staphylococcus epidermidis ATCC 35984 assessed as bacterial count at 2 ug/ml after 4 hrs by time-kill assay
Streptococcus pyogenes [19] = experiment: Antibacterial activity against Streptococcus pyogenes MED 2040 by broth microdilution method
Streptococcus agalactiae [20] = experiment: (§1) Antibacterial activity against Streptococcus agalactiae MED 2038 assessed as bacterial count at […] after 2 hrs by time-kill assay
[21] = tested on: Staphylococcus epidermidis; experiment: Antibacterial activity against methicillin resistant Staphylococcus epidermidis ATCC 35984 assessed as bacterial count at 4 ug/ml after 24 hrs by time-kill assay
Streptococcus agalactiae [22] = experiment: Antibacterial activity against Streptococcus agalactiae group B clinical isolate by broth microdilution method
Streptococcus pyogenes [23] = experiment: Antibacterial activity against Streptococcus pyogenes MED 2040 assessed as bacterial count at 0.5 ug/ml after 8 hrs by time-kill assay
Staphylococcus aureus [24] = experiment: Antibacterial activity against methicillin resistant Staphylococcus aureus MED 1805 bloodstream isolate assessed as bacterial count at 4 ug/ml after 2 hrs by time-kill assay
Streptococcus pyogenes [25] = experiment: Antibacterial activity against Streptococcus pyogenes MED 2040 assessed as bacterial count at 2 ug/ml after 24 hrs by time-kill assay
Streptococcus pyogenes [26] = experiment: Antibacterial activity against Streptococcus pyogenes MED 2040 assessed as bacterial count at 8 ug/ml after 8 hrs by time-kill assay
Streptococcus agalactiae [27] = experiment: Antibacterial activity against Streptococcus agalactiae MED 2038 assessed as bacterial count at […] after 8 hrs by time-kill assay
Streptococcus agalactiae [28] = experiment: Antibacterial activity against Streptococcus agalactiae MED 2038 assessed as bacterial count at […] after 24 hrs by time-kill assay
Staphylococcus aureus [29] = experiment: Antibacterial activity against methicillin resistant Staphylococcus aureus MED 1805 bloodstream isolate assessed as bacterial count at 1 ug/ml after 2 hrs by time-kill assay
Streptococcus pneumoniae [30] = experiment: Antibacterial activity against penicillin resistant Streptococcus pneumoniae clinical isolate by broth microdilution method
Enterococcus faecium = experiment: Antibacterial activity against vancomycin resistant Enterococcus faecium VanA clinical isolate by broth microdilution method
Streptococcus agalactiae [31] = experiment: Antibacterial activity against Streptococcus agalactiae MED 2038 assessed as bacterial count at 8 ug/ml after 8 hrs by time-kill assay
Streptococcus agalactiae [32] = experiment: as §1; remark: listed apart in the source
Streptococcus pneumoniae [33] = experiment: Antibacterial activity against multidrug resistant Streptococcus pneumoniae MED 1090 assessed as bacterial count at 0.06 ug/ml after 2 hrs by time-kill assay
[34] = tested on: Staphylococcus epidermidis; experiment: Antibacterial activity against methicillin resistant Staphylococcus epidermidis ATCC 35984 assessed as bacterial count at 2 ug/ml after 24 hrs by time-kill assay
Enterococcus faecalis = experiment: Antibacterial activity against Enterococcus faecalis ATCC 51575 assessed as bacterial count at 8 ug/ml after 4 hrs by time-kill assay
Streptococcus pneumoniae [35] = experiment: Antibacterial activity against multidrug-resistant Streptococcus pneumoniae clinical isolate by broth microdilution method
Streptococcus pneumoniae [36] = experiment: Antibacterial activity against multidrug resistant Streptococcus pneumoniae MED 1090 assessed as bacterial count at 0.06 ug/ml after 8 hrs by time-kill assay
Streptococcus mitis = experiment: Antibacterial activity against Streptococcus mitis clinical isolate by broth microdilution method
Staphylococcus aureus [37] = experiment: Antibacterial activity against methicillin resistant Staphylococcus aureus MED 2028 osteomyelitis isolate assessed as bacterial count at 4 ug/ml after 24 hrs by time-kill assay
Streptococcus pyogenes [38] = experiment: Antibacterial activity against Streptococcus pyogenes MED 2040 assessed as bacterial count at […] after 8 hrs by time-kill assay
Staphylococcus aureus [39] = experiment: Antibacterial activity against methicillin resistant Staphylococcus aureus MED 2028 osteomyelitis isolate assessed as bacterial count at 1 ug/ml after 4 hrs by time-kill assay
Staphylococcus aureus [40] = experiment: Antibacterial activity against methicillin resistant Staphylococcus aureus MED 1805 bloodstream isolate assessed as bacterial count at 2 ug/ml after 24 hrs by time-kill assay
[41] = tested on: Staphylococcus epidermidis; experiment: Antibacterial activity against methicillin resistant Staphylococcus epidermidis ATCC 35984 assessed as bacterial count at 16 ug/ml after 8 hrs by time-kill assay

In the case of `CCCCCCCCCCNCCN[C@@]1(C)C[C@H](O[C@H]2[C@H](Oc3c4cc5cc3Oc3ccc(cc3Cl)[C@@H](O)[C@@H](NC(=O)[C@@H](CC(C)C)NC)C(=O)N[C@@H](CC(N)=O)C(=O)N[C@H]5C(=O)N[C@H]3C(=O)N[C@H](C(=O)N[C@H](C(=O)O)c5cc(O)c(CNCP(=O)(O)O)c(O)c5-c5cc3ccc5O)[C@H](O)c3ccc(c(Cl)c3)O4)O[C@H](CO)[C@@H](O)[C@@H]2O)O[C@@H](C)[C@H]1O` [TELAVANCIN], the log10CFU/ml (Streptococcus agalactiae [1]) is reported as 0.87, the log10CFU/ml (Staphylococcus aureus [2]) is reported as 2.7 and the log10CFU/ml (Staphylococcus aureus [3]) is reported as 0.4. The MIC50 [4] was 0.5 µg/mL (≈ 0.285 µM), the MIC90 [4] was 1 µg/mL (≈ 0.57 µM) and the log10CFU/ml (Streptococcus pyogenes [5]) was 0.4. The log10CFU/ml (Staphylococcus aureus [6]) was 1.6, the log10CFU/ml (Staphylococcus aureus [7]) was 3.4 and the log10CFU/ml (Streptococcus pneumoniae [8]) was 2.6. It also gave an MIC50 [9] of 0.5 µg/mL (≈ 0.285 µM), an MIC90 [9] of 1 µg/mL (≈ 0.57 µM) and an MIC (Streptococcus pneumoniae [10]) of 0.015 µg/mL (≈ 0.00854 µM). The log10CFU/ml [11] was 1.8, the log10CFU/ml (Streptococcus pneumoniae [12]) was 2.1 and the log10CFU/ml (Staphylococcus aureus [13]) was 2.9. It also gave a log10CFU/ml (Staphylococcus aureus [14]) of 3.1, a log10CFU/ml (Streptococcus pneumoniae [15]) of 3.4 and a log10CFU/ml (Streptococcus pyogenes [16]) of 1.2. The MIC [17] was 1 µg/mL (≈ 0.57 µM), the log10CFU/ml [18] was 0.03 and the MIC (Streptococcus pyogenes [19]) was 0.06 µg/mL (≈ 0.0342 µM). For the same compound, the log10CFU/ml (Streptococcus agalactiae [20]) was 1, the log10CFU/ml [21] was 3.3 and the MIC50 (Streptococcus agalactiae [22]) was 0.06 µg/mL (≈ 0.0342 µM). It also gave an MIC90 (Streptococcus agalactiae [22]) of 0.06 µg/mL (≈ 0.0342 µM), a log10CFU/ml (Streptococcus pyogenes [23]) of 2.3 and a log10CFU/ml (Staphylococcus aureus [24]) of 1.2. The log10CFU/ml (Streptococcus pyogenes [25]) was 3.1, the log10CFU/ml (Streptococcus pyogenes [26]) was 2.7 and the log10CFU/ml (Streptococcus agalactiae [27]) was 1.6. The log10CFU/ml (Streptococcus agalactiae [28]) was 3.6, the log10CFU/ml (Staphylococcus aureus [29]) was 0.9 and the MIC50 (Streptococcus pneumoniae [30]) was 0.015 µg/mL (≈ 0.00854 µM). For the same compound, the MIC90 (Streptococcus pneumoniae [30]) was 0.03 µg/mL (≈ 0.0171 µM), the MIC50 (Enterococcus faecium) was 8 µg/mL (≈ 4.56 µM) and the MIC90 (Enterococcus faecium) was 16 µg/mL (≈ 9.11 µM). The log10CFU/ml (Streptococcus agalactiae [31]) was 1.8, the log10CFU/ml (Streptococcus agalactiae [32]) was 1 and the log10CFU/ml (Streptococcus pneumoniae [33]) was 1. For the same compound, the log10CFU/ml [34] was 3.1, the log10CFU/ml (Enterococcus faecalis) was 0.2 and the MIC50 (Streptococcus pneumoniae [35]) was 0.015 µg/mL (≈ 0.00854 µM). It also gave an MIC90 (Streptococcus pneumoniae [35]) of 0.03 µg/mL (≈ 0.0171 µM), a log10CFU/ml (Streptococcus pneumoniae [36]) of 3.4 and an MIC (Streptococcus mitis) of 0.015 µg/mL (≈ 0.00854 µM). For the same compound, the MIC50 (Streptococcus mitis) was “inactive”, the MIC90 (Streptococcus mitis) was “inactive” and the log10CFU/ml (Staphylococcus aureus [37]) was 3.4. For the same compound, the log10CFU/ml (Streptococcus pyogenes [38]) was 0.5, the log10CFU/ml (Staphylococcus aureus [39]) was 1.3 and the log10CFU/ml (Staphylococcus aureus [40]) was 2.8. It also gave a log10CFU/ml [41] of 3.3.
